These are literature values, as cited in patent publication US6465462B1, “Substituted triazolo pyridazine derivatives as inverse agonists of the GABAAα5 receptor subtype” (Merck Sharp & Dohme Ltd., priority 1996, dated 2002).

The conditions of series [1]: reported by McNamara and Skelton, Psychobiology 21:101-108.
The conditions of series [2]: in vivo.

Consider `COC(=O)c1cc2c(cn1)[nH]c1ccccc12` [β-CCM], for which the “spatial learning in the Morris watermaze” value in series [1] is listed as “enhanced spatial learning”. In addition, the proconvulsant effect result in series [2] was “proconvulsant”.
